From the NIST ThermoML archive (doi:10.1021/je200637v)
Numbers after ± are expanded uncertainties.

Experiment: activity coefficient (dimensionless); of the first substance listed, at infinite dilution; xn = mol fraction of the nth substance listed
Conditions: Liquid, Chromatography, x1 = 0

For ClC(Cl)(Cl)Cl [tetrachloromethane] + CCCCCCCC[N+](CCCCCCCC)(CCCCCCCC)CCCCCCCC.O=S(=O)([N-]S(=O)(=O)C(F)(F)F)C(F)(F)F, the activity coefficient (322.85 K) was 0.63 ± 0.03, the activity coefficient (332.65 K) was 0.64 ± 0.03 and the activity coefficient (343.15 K) was 0.64 ± 0.03.
Cc1ccccc1 [toluene] + CCCCCCCCCC[N+](C)(C)C.O=S(=O)([N-]S(=O)(=O)C(F)(F)F)C(F)(F)F gave an activity coefficient (322.85 K) of 0.84 ± 0.03, an activity coefficient (332.65 K) of 0.89 ± 0.03 and an activity coefficient (343.15 K) of 0.89 ± 0.03.
Work on CCC=O [propanal] + CCCCCCCC[N+](CCCCCCCC)(CCCCCCCC)CCCCCCCC.O=S(=O)([N-]S(=O)(=O)C(F)(F)F)C(F)(F)F yielded an activity coefficient (322.85 K) of 0.25 ± 0.04, an activity coefficient (332.65 K) of 0.35 ± 0.04 and an activity coefficient (343.15 K) of 0.35 ± 0.04.
CCCCCCCCCC [decane] + CCCCCCCC[N+](CCCCCCCC)(CCCCCCCC)CCCCCCCC.O=S(=O)([N-]S(=O)(=O)C(F)(F)F)C(F)(F)F showed an activity coefficient (322.85 K) of 2.3 ± 0.1, an activity coefficient (332.65 K) of 2.32 ± 0.11 and an activity coefficient (343.15 K) of 2.21 ± 0.1.
In the case of CC(C)OC(C)C [diisopropyl ether] + CCCCCCCC[N+](CCCCCCCC)(CCCCCCCC)CCCCCCCC.O=S(=O)([N-]S(=O)(=O)C(F)(F)F)C(F)(F)F, the activity coefficient (322.85 K) is reported as 1.08 ± 0.03, the activity coefficient (332.65 K) is reported as 1.08 ± 0.03 and the activity coefficient (343.15 K) is reported as 1.08 ± 0.03.
Work on C#CCCCCC [1-heptyne] + CCCCCCCCCC[N+](C)(C)C.O=S(=O)([N-]S(=O)(=O)C(F)(F)F)C(F)(F)F yielded an activity coefficient (322.85 K) of 1.95 ± 0.09, an activity coefficient (332.65 K) of 2.02 ± 0.09 and an activity coefficient (343.15 K) of 1.97 ± 0.09.
CC(C)O [propan-2-ol] + CCCC[N+](C)(CCCC)CCCC.O=S(=O)([N-]S(=O)(=O)C(F)(F)F)C(F)(F)F showed an activity coefficient (322.85 K) of 1.67 ± 0.07, an activity coefficient (332.65 K) of 1.54 ± 0.06 and an activity coefficient (343.15 K) of 1.4 ± 0.05.
Compound CCC(C)=O [butanone] + CCCC[N+](C)(CCCC)CCCC.O=S(=O)([N-]S(=O)(=O)C(F)(F)F)C(F)(F)F has an activity coefficient (322.85 K) of 0.4 ± 0.03, an activity coefficient (332.65 K) of 0.38 ± 0.03 and an activity coefficient (343.15 K) of 0.35 ± 0.04.
For CCCCCCCC [octane] + CCCC[N+](C)(CCCC)CCCC.O=S(=O)([N-]S(=O)(=O)C(F)(F)F)C(F)(F)F, the activity coefficient (322.85 K) was 11.6 ± 0.53, the activity coefficient (332.65 K) was 11.5 ± 0.53 and the activity coefficient (343.15 K) was 10.8 ± 0.5.
CCC(C)CC [3-methylpentane] + CCCCCCCCCC[N+](C)(C)C.O=S(=O)([N-]S(=O)(=O)C(F)(F)F)C(F)(F)F gave an activity coefficient (322.85 K) of 3.88 ± 0.18, an activity coefficient (332.65 K) of 3.78 ± 0.17 and an activity coefficient (343.15 K) of 3.62 ± 0.16.
With CO [methanol] + CCCCCCCC[N+](C)(C)C.O=S(=O)([N-]S(=O)(=O)C(F)(F)F)C(F)(F)F the activity coefficient (322.85 K) was 0.92 ± 0.03, the activity coefficient (332.65 K) was 0.78 ± 0.03 and the activity coefficient (343.15 K) was 0.81 ± 0.03.
Compound C#CCCCCC [1-heptyne] + CCCCCCCC[N+](C)(C)C.O=S(=O)([N-]S(=O)(=O)C(F)(F)F)C(F)(F)F has an activity coefficient (322.85 K) of 2.48 ± 0.11, an activity coefficient (332.65 K) of 2.46 ± 0.11 and an activity coefficient (343.15 K) of 2.39 ± 0.11.
Compound C1CCCCCC1 [cycloheptane] + CCCC[N+](C)(CCCC)CCCC.O=S(=O)([N-]S(=O)(=O)C(F)(F)F)C(F)(F)F has an activity coefficient (322.85 K) of 12.4 ± 0.57, an activity coefficient (332.65 K) of 17.7 ± 0.82 and an activity coefficient (343.15 K) of 23.9 ± 1.1.
Work on CC1CCCC1 [methylcyclopentane] + CCCCCCCC[N+](CCCCCCCC)(CCCCCCCC)CCCCCCCC.O=S(=O)([N-]S(=O)(=O)C(F)(F)F)C(F)(F)F yielded an activity coefficient (322.85 K) of 0.98 ± 0.03, an activity coefficient (332.65 K) of 0.97 ± 0.03 and an activity coefficient (343.15 K) of 0.97 ± 0.03.
CO [methanol] + CCCCCCCCCC[N+](C)(C)C.O=S(=O)([N-]S(=O)(=O)C(F)(F)F)C(F)(F)F gave an activity coefficient (322.85 K) of 0.79 ± 0.03, an activity coefficient (332.65 K) of 0.91 ± 0.03 and an activity coefficient (343.15 K) of 0.66 ± 0.03.
With CCCCCCCC [octane] + CCCCCCCC[N+](C)(C)C.O=S(=O)([N-]S(=O)(=O)C(F)(F)F)C(F)(F)F the activity coefficient (322.85 K) was 11 ± 0.51, the activity coefficient (332.65 K) was 10.3 ± 0.47 and the activity coefficient (343.15 K) was 9.47 ± 0.43.
In the case of Cc1cccc(C)c1 [1,3-dimethylbenzene] + CCCC[N+](C)(CCCC)CCCC.O=S(=O)([N-]S(=O)(=O)C(F)(F)F)C(F)(F)F, the activity coefficient (322.85 K) is reported as 1.49 ± 0.06, the activity coefficient (332.65 K) is reported as 1.56 ± 0.06 and the activity coefficient (343.15 K) is reported as 1.56 ± 0.06.
CC(C)O [propan-2-ol] + CCCCCCCC[N+](CCCCCCCC)(CCCCCCCC)CCCCCCCC.O=S(=O)([N-]S(=O)(=O)C(F)(F)F)C(F)(F)F gave an activity coefficient (322.85 K) of 1.21 ± 0.04, an activity coefficient (332.65 K) of 1.13 ± 0.03 and an activity coefficient (343.15 K) of 1.05 ± 0.03.
Work on c1ccccc1 [benzene] + CCCCCCCC[N+](C)(C)C.O=S(=O)([N-]S(=O)(=O)C(F)(F)F)C(F)(F)F yielded an activity coefficient (322.85 K) of 0.73 ± 0.03, an activity coefficient (332.65 K) of 0.74 ± 0.03 and an activity coefficient (343.15 K) of 0.73 ± 0.03.
Work on CCCCCCCCCCC [undecane] + CCCCCCCC[N+](CCCCCCCC)(CCCCCCCC)CCCCCCCC.O=S(=O)([N-]S(=O)(=O)C(F)(F)F)C(F)(F)F yielded an activity coefficient (343.15 K) of 2.54 ± 0.12.
Work on c1ccncc1 [pyridine] + CCCCCCCC[N+](CCCCCCCC)(CCCCCCCC)CCCCCCCC.O=S(=O)([N-]S(=O)(=O)C(F)(F)F)C(F)(F)F yielded an activity coefficient (322.85 K) of 0.33 ± 0.04, an activity coefficient (332.65 K) of 0.33 ± 0.04 and an activity coefficient (343.15 K) of 0.34 ± 0.04.
Compound CC(C)OC(C)C [diisopropyl ether] + CCCCCCCCCC[N+](C)(C)C.O=S(=O)([N-]S(=O)(=O)C(F)(F)F)C(F)(F)F has an activity coefficient (322.85 K) of 2.19 ± 0.1, an activity coefficient (332.65 K) of 2.32 ± 0.11 and an activity coefficient (343.15 K) of 2.3 ± 0.1.
With CCC(=O)CC [pentan-3-one] + CCCCCCCC[N+](C)(C)C.O=S(=O)([N-]S(=O)(=O)C(F)(F)F)C(F)(F)F the activity coefficient (322.85 K) was 0.52 ± 0.03, the activity coefficient (332.65 K) was 0.53 ± 0.03 and the activity coefficient (343.15 K) was 0.54 ± 0.03.
CCCCCCCC [octane] + CCCCCCCCCC[N+](C)(C)C.O=S(=O)([N-]S(=O)(=O)C(F)(F)F)C(F)(F)F gave an activity coefficient (322.85 K) of 6.53 ± 0.3, an activity coefficient (332.65 K) of 6.41 ± 0.29 and an activity coefficient (343.15 K) of 6.1 ± 0.28.
CCOCC [diethyl ether] + CCCCCCCC[N+](CCCCCCCC)(CCCCCCCC)CCCCCCCC.O=S(=O)([N-]S(=O)(=O)C(F)(F)F)C(F)(F)F showed an activity coefficient (322.85 K) of 0.71 ± 0.03, an activity coefficient (332.65 K) of 0.71 ± 0.03 and an activity coefficient (343.15 K) of 0.71 ± 0.03.
With CCc1ccccc1 [ethylbenzene] + CCCCCCCCCC[N+](C)(C)C.O=S(=O)([N-]S(=O)(=O)C(F)(F)F)C(F)(F)F the activity coefficient (322.85 K) was 1.16 ± 0.04, the activity coefficient (332.65 K) was 1.2 ± 0.04 and the activity coefficient (343.15 K) was 1.19 ± 0.04.
Compound CC(C)CO [2-methyl-1-propanol] + CCCCCCCCCC[N+](C)(C)C.O=S(=O)([N-]S(=O)(=O)C(F)(F)F)C(F)(F)F has an activity coefficient (322.85 K) of 1.59 ± 0.06, an activity coefficient (332.65 K) of 1.47 ± 0.06 and an activity coefficient (343.15 K) of 1.31 ± 0.05.
Work on CCCCCC [hexane] + CCCCCCCC[N+](C)(C)C.O=S(=O)([N-]S(=O)(=O)C(F)(F)F)C(F)(F)F yielded an activity coefficient (322.85 K) of 6.21 ± 0.28, an activity coefficient (332.65 K) of 5.83 ± 0.27 and an activity coefficient (343.15 K) of 5.36 ± 0.24.
For C#CCCCC [1-hexyne] + CCCCCCCCCC[N+](C)(C)C.O=S(=O)([N-]S(=O)(=O)C(F)(F)F)C(F)(F)F, the activity coefficient (322.85 K) was 1.61 ± 0.06, the activity coefficient (332.65 K) was 1.63 ± 0.07 and the activity coefficient (343.15 K) was 1.57 ± 0.06.
CCC[N+](=O)[O-] [1-nitropropane] + CCCC[N+](C)(CCCC)CCCC.O=S(=O)([N-]S(=O)(=O)C(F)(F)F)C(F)(F)F gave an activity coefficient (322.85 K) of 0.68 ± 0.03, an activity coefficient (332.65 K) of 0.7 ± 0.03 and an activity coefficient (343.15 K) of 0.68 ± 0.03.
CCO [ethanol] + CCCC[N+](C)(CCCC)CCCC.O=S(=O)([N-]S(=O)(=O)C(F)(F)F)C(F)(F)F gave an activity coefficient (322.85 K) of 1.53 ± 0.06, an activity coefficient (332.65 K) of 1.4 ± 0.05 and an activity coefficient (343.15 K) of 1.27 ± 0.04.
Compound Cc1ccccc1 [toluene] + CCCCCCCC[N+](C)(C)C.O=S(=O)([N-]S(=O)(=O)C(F)(F)F)C(F)(F)F has an activity coefficient (322.85 K) of 0.97 ± 0.03, an activity coefficient (332.65 K) of 0.98 ± 0.03 and an activity coefficient (343.15 K) of 0.98 ± 0.03.
In the case of CCCC(C)=O [pentan-2-one] + CCCCCCCC[N+](CCCCCCCC)(CCCCCCCC)CCCCCCCC.O=S(=O)([N-]S(=O)(=O)C(F)(F)F)C(F)(F)F, the activity coefficient (322.85 K) is reported as 0.35 ± 0.04, the activity coefficient (332.65 K) is reported as 0.36 ± 0.04 and the activity coefficient (343.15 K) is reported as 0.37 ± 0.03.
CCCCCCCCCCCC [dodecane] + CCCCCCCC[N+](C)(C)C.O=S(=O)([N-]S(=O)(=O)C(F)(F)F)C(F)(F)F gave an activity coefficient (322.85 K) of 33.1 ± 1.5, an activity coefficient (332.65 K) of 30.5 ± 1.4 and an activity coefficient (343.15 K) of 27.1 ± 1.3.
